Measured values as given in US20210196720A1 (UROVANT SCIENCES GMBH, priority 2018, published 2021).
Where two headings read alike, the source gives them in different places.

Tests used:
[1] = Renal impairment PK, single 100 mg; set-up: AUC0-inf GMR vs healthy / Cmax GMR vs healthy: unit not given beside the values;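 also: pharmacokinetic parameters in patients with renal impairment of differing severity, statistically compared against matched healthy subjects as controls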
[2] = Multiple rising dose Phase 1 PK, healthy subjects, day 14 (young males unless stated); assay type: in vivo, human; details: for AUC(0-t): read-out: AUC0-24
Source text: The steady state AUC geometric mean accumulation ratios were ˜2 in young male subjects and ˜2.8 in elderly subjects (male and female).
Although exposures were similar in middle-aged males when compared to young males, plasma concentrations were higher in elderly compared to middle-aged and young subjects. […] Furthermore, the steady state AUC geometric mean accumulation ratios were ˜2 in young males and ˜2.8 in the elderly.

## O=C(Nc1ccc(C[C@@H]2CC[C@H]([C@H](O)c3ccccc3)N2)cc1)[C@@H]1CCc2nccc(=O)n21 [Vibegron, (6S)-N-[4-[[(2S,5R)-5-[(R)-hydroxy(phenyl)methyl]pyrrolidin-2-yl]methyl]phenyl]-4-oxo-7,8-dihydro-6H-pyrrolo[1,2-a]pyrimidine-6-carboxamide]
[1]; healthy matched controls
  AUC(0-inf): 1540 ng·h/mL
  Apparent terminal t1/2: 98.8 h
  CL/F: 64.9 L/h
  CLR: 10.4 L/h
  Fe[urine]48 hr: 7.9%
[1]; mild renal impairment
  AUC0-inf GMR vs healthy: 1.49
  AUC0-inf higher than healthy controls: 49%
  AUC(0-inf): 2290 ng·h/mL
  Apparent terminal t1/2: 96.2 h
  CL/F: 43.6 L/h
  CLR: 6.3 L/h
  CLR reduction vs healthy controls: 39%
  Cmax: 210 ng/mL
  Cmax GMR vs healthy: 1.96
  Cmax higher than healthy controls: 96%
  Fe[urine]48 hr: 8.5%
  Tmax: 1.0 h
[1]; moderate renal impairment
  AUC0-inf GMR vs healthy: 2.06
  AUC0-inf higher than healthy controls: 106%
  AUC(0-inf): 3170 ng·h/mL
  Apparent terminal t1/2: 108 h
  CL/F: 31.5 L/h
  CLR: 3.6 L/h
  CLR reduction vs healthy controls: 65%
  Cmax: 180 ng/mL
  Cmax GMR vs healthy: 1.68
  Cmax higher than healthy controls: 68%
  Fe[urine]48 hr: 5.5%
  Tmax: 1.3 h
  mean increase in AUC vs normal renal function: 1.6 fold
[1]; severe renal impairment
  AUC0-inf GMR vs healthy: 1.83
  AUC0-inf higher than healthy controls: 83%
  AUC(0-inf): 2820 ng·h/mL
  CL/F: 35.5 L/h
  CLR: 1.9 L/h
  CLR reduction vs healthy controls: 82%
  Cmax GMR vs healthy: 1.42
  Cmax higher than healthy controls: 42%
  Fe[urine]48 hr: 2.1%
  Tmax: 0.5 h
[2]; 25 mg QD
  Ctrough: 5.07 ± 0.711 ng/mL
[2]; 50 mg QD
  Ctrough: 15.2 ± 5.07 ng/mL
[2]; 50 mg QD, Japanese
  Ctrough: 16.5 ± 6.05 ng/mL
[2]; 100 mg QD
  Ctrough: 31.9 ± 11.5 ng/mL
  steady state Cmax, elderly vs young males: ~1.3 fold
[2]; 100 mg QD, elderly male and female
  Ctrough: 54.2 ± 15.3 ng/mL
[2]; 100 mg, elderly
  fe0-24 hr, ss: ~17%
[2]; 150 mg QD, middle-aged female, fasted
  Cmax: 346 ± 139 ng/mL
[2]; 100 and 150 mg, young males
  fe0-24 hr, ss: ~14%
[2]; Day 14
  steady state exposure (AUC0-24) higher, elderly Japanese vs non-Japanese: 35%
[2]; both sexes, human, plasma, oral, 100 mg, 100 mg QD, elderly Japanese
  AUC(0-t): 2920 ± 693 ng·h/mL
[2]; both sexes, human, plasma, oral, 100 mg, 100 mg QD, elderly Japanese, read-out: t1/2 (converted)
  half-life: 75.1 ± 3.9 h
[2]; both sexes, human, plasma, oral, 100 mg, 100 mg QD, elderly male and female
  AUC(0-t): 2230 ± 671 ng·h/mL
